Test results taken from article PMC8614999, “A Comparative Analysis of Punicalagin Interaction with PDIA1 and PDIA3 by Biochemical and Computational Approaches” (Biomedicines, 2021).

Experiments:
[1] = target: T1, PDIA3 (Homo sapiens, UniProt P30101); test: Disulfide reductase activity with di-E-GSSG, PDIA3; type: biochemical; details: PDIA3, di-E-GSSG substrate
T1 construct: Mature human recombinant PDIA3 protein was expressed and purified; made in house
T1 sequence (P30101 25-505): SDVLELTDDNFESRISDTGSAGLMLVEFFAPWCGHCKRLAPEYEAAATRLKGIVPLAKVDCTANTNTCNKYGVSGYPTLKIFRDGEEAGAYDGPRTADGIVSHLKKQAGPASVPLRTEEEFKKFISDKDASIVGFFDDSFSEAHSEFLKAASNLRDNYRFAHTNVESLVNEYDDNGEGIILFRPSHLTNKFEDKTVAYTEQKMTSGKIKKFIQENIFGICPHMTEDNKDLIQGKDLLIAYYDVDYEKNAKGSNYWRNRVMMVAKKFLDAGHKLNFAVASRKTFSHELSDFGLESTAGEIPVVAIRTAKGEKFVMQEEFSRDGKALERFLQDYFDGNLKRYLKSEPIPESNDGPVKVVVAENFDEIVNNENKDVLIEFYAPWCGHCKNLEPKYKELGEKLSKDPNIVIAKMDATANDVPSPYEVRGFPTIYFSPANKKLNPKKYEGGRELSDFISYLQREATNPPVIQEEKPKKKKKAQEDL
Procedure: (§1) PDIAs disulfide reductase activity was monitored by using di-eosin glutathione disulfide (di-E-GSSG) as a fluorogenic substrate of PDIAs. Di-E-GSSG was synthesized by the reaction of eosin isothiocyanate with oxidized glutathione (GSSG) according to the method of Raturi and Mutus with some modifications. Protein activity was evaluated by monitoring the emission fluorescence increase (λem = 545 nm and λex = 525 nm), and the effect of punicalagin (concentration ranging from 0.2 to 50 µM) was tested. Inhibition constants were extrapolated by GraphPad Prism 8.0 software (GraphPad Software, San Diego, CA, USA), plotting the obtained data as logarithm dose-response curves.
(§2) Punicalagin effects have also been studied on the enzymatic activity of PDIA3 and PDIA1. It is well known that both proteins catalyze oxidoreductase and isomerase reactions involving thiol groups and disulfide bonds. PDIs’ reductase activity was evaluated using di-E-GSSG as fluorogenic substrate and was calculated as the initial velocity in fluorescence increased due to the reduction in the fluorogenic substrate. […] For comparison purposes, the punicalagin inhibitory effect was extended to PDIA1. Results were analyzed as logarithmic dose response, and the half-maximal inhibitory concentrations (IC50) were evaluated (Figure 4).

[2] = target: T1, PDIA3; test: Isothermal titration calorimetry, PDIA3; type: binding; details: ITC, PDIA3 reduced form, 25 °C
Procedure: (§3) Punicalagin interaction with PDIA3 and PDIA1 was investigated using isothermal titration calorimetry (ITC) with a MicroCal ITC200 (Malvern Instruments, Malvern, UK). […] Protein solution was loaded in the sample cell (0.2 mL), and the syringe was filled with punicalagin 250 µM dissolved in the same buffer. A total of 20 ligand aliquots (the first aliquot of 0.4 µL in 0.8 s and the other 19 aliquots of 2 µL in 4 s) were gradually added to the sample cell at intervals of 200 s each other to allow baseline recovery. The syringe stirring speed was set at 800 rpm. Protein and punicalagin solutions were thoroughly degassed on the MicroCal’s Thermovac machine before loading to avoid air bubble formation during the titration. Data analyses were performed by Origin software version 8.0 (OriginLab, Northampton, MA, USA). The heat of dilution for the ligand was determined in parallel, and this value was subtracted from the integrated data before curve fitting. The integration of the area under each heat burst curve was determined. All injection heats as a function of the molar ratio were plotted and analyzed using the one set of sites model to provide the dissociation constants.

[3] = target: T2, PDIA1 (Homo sapiens, UniProt P07237); test: Isothermal titration calorimetry, PDIA1; type: binding; details: ITC, PDIA1 reduced form, 25 °C
T2 construct: The pOLR130 plasmid encoding mature human PDIA1 with an N-terminal His6x-tag; His6 (N); made in house; host or cells: E. coli BL21
Procedure: as §3

[4] = target: T1, PDIA3; set-up: method as in PMID 29425676; details: PDIA3 reductase activity, non-competitive inhibitor; cited from earlier work
[5] = target: T2, PDIA1; test: Disulfide reductase activity with di-E-GSSG, PDIA1; type: biochemical; details: PDIA1, di-E-GSSG substrate
Procedure: as §1, §2

[6] = target: T2, PDIA1; test: Differential scanning calorimetry thermal denaturation, PDIA1; type: binding; details: reduced PDIA1 5 µM, punicalagin 25 µM
Procedure: (§4) Protein stability in solution was assayed by differential scanning calorimetry (DSC) with a Microcal VP-DSC (Microcal, Northampton, MA, USA) testing both proteins. […] The reference cell was filled with protein-free buffer. A heating rate of 60 °C h^−1 was set, and the measurement cell worked under an excess pressure of 0.2 kPa to avoid air bubble formation during the heating. The heat absorption during the denaturation process was measured by subtracting the instrumental baseline from the sample trace and normalizing for protein concentration. To test the effect of the ligand on protein stability, analysis was also performed on both proteins in the presence of punicalagin (25 µM final concentration). The melting points (Tm, temperature at which excess heat capacity reaches a maximum) were directly observable from the thermogram. Nevertheless, data deconvolution using the Origin software provided by MicroCal was necessary to obtain Tm values.

[7] = set-up: method as in printed; details: background statement, ref not given; cited from earlier work
[8] = target: T1, PDIA3; test: Tryptophan fluorescence quenching titration, PDIA3; type: binding; details: for Stern–Volmer constant KSV: 0.1 × 10^−6 M protein; for Stern–Volmer constant KSV / Kd: pH 7.4, 25 °C; for Kd: fluorescence quenching
Procedure: (§5) Protein-ligand interactions were evaluated according to the fluorescence quenching titration method using a SPEX-FluoroMax spectrofluorometer (Horiba Scientific, Piscataway, NJ, USA). Emission spectra were recorded from 300 to 400 nm with an excitation wavelength set at 290 nm. The emission slit width was fixed to provide a 2 nm bandpass for all experiments. Scan speed was set at 120 nm min^−1. A total of 50 µM PDIA1 and PDIA3 stock solutions were reduced by adding DTT 5 mM. […] The titrations were performed by stepwise additions, at 5 min time intervals, of punicalagin solution from 0 to 4 µM (punicalagin 0.2 mM in PBS pH 7.4 freshly prepared from a 5 mM stock solution in water). Blank spectra for each experiment (no protein added) were performed in parallel for background determination. The emission spectrum of the protein was recorded three times, and the average reading values were then used for quenching analyses as already described.
(§6) Quenching of intrinsic tryptophan fluorescence at 338 nm has been analyzed by Stern–Volmer equation (Fo/F = 1 + KSV[L]), where F and F0 are the fluorescence intensity, respectively with or without ligand (L), and KSV is the Stern–Volmer constant value. Based on obtained results, punicalagin is able to quench the fluorescence of both proteins with a Stern–Volmer constant always greater than 1.0 × 10^4 M^−1 (Figure 2B and Table 1). […] In order to further characterize the binding process, data were analyzed using the equation described by Bi et al. and the reiterative calculation process described by Sun et al., providing an estimation of the Kd values (Table 1). Punicalagin binds both PDIAs in the micro-molar order of magnitude, showing a slightly greater affinity toward PDIA3, which tryptophan residues appear more quenchable upon punicalagin binding.

[9] = target: T1, PDIA3; test: Differential scanning calorimetry thermal denaturation, PDIA3; type: binding; details: reduced PDIA3 5 µM, punicalagin 25 µM
Procedure: as §4

[10] = target: T2, PDIA1; test: Tryptophan fluorescence quenching titration, PDIA1; type: binding; details: for Stern–Volmer constant KSV: 0.1 × 10^−6 M protein; for Stern–Volmer constant KSV / Kd: pH 7.4, 25 °C; for Kd: fluorescence quenching
Procedure: as §5, §6

T2 sequence (P07237 18-508): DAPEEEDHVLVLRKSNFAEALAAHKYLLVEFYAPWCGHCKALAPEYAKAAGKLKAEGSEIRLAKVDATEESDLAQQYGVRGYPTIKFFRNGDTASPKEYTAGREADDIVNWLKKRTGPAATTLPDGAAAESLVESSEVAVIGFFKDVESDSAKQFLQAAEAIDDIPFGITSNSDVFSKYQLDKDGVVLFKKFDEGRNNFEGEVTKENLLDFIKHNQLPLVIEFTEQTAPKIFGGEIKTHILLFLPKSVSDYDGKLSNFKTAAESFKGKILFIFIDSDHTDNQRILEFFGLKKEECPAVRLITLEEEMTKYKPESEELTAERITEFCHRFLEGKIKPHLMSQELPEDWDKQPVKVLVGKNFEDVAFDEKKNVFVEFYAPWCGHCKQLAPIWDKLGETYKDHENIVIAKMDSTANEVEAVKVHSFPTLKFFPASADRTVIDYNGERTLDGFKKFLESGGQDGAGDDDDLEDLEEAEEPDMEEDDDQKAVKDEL

Structure (SMILES): O=C1O[C@H]2[C@@H]3OC(=O)c4cc(O)c(O)c(O)c4-c4c(O)c(O)c5oc(=O)c6c(c(O)c(O)c7oc(=O)c4c5c76)-c4c(cc(O)c(O)c4O)C(=O)OC[C@H]3OC(O)[C@@H]2OC(=O)c2cc(O)c(O)c(O)c2-c2c1cc(O)c(O)c2O (mixture of isomers) [punicalagin]
- IC50 [1]: 1.5 ± 0.2 µM
- Kd [2]: 1.2 ± 0.3 µM
- TΔS [2]: 6.8 ± 0.4 kcal/mol
- ΔH [2]: -1.1 ± 0.2 kcal/mol
- Kd [3]: 1 ± 0.2 µM
- TΔS [3]: 5.6 ± 0.5 kcal/mol
- ΔH [3]: -2.7 ± 0.4 kcal/mol
- Ki [4]: 0.39 µM
- IC50 [5]: 6.1 ± 0.6 µM
- Tm of first endothermic peak in presence of punicalagin ([6]; protein alone 46.0 °C): 42 °C
- Tm of second endothermic peak in presence of punicalagin ([6]; protein alone 61.0 °C): 60 °C
- solubility in water [7]: soluble in water
- Quenching constant Kq ([8]; PDIA3, KSV = Kqτ, τ in the order of 1.0 × 10^−8 s): greater than 1.0 × 10^10 M^1s^−1
- Stern–Volmer constant (bound stated in text) ([8]; PDIA3, both proteins always greater): greater than 1.0 × 10^4 M^−1
- Stern–Volmer constant KSV ([8]; PDIA3 not reduced form): 240.4 ± 3.6 M^−1 × 10^3
- Stern–Volmer constant KSV ([8]; PDIA3 reduced form): 157.1 ± 1.9 M^−1 × 10^3
- Kd ([8]; PDIA3 not reduced form): 3.9 µM
- Kd ([8]; PDIA3 reduced form): 10 µM
- Tm of first endothermic peak in presence of punicalagin ([9]; protein alone 44.9 °C): 40.4 °C
- Tm of second endothermic peak in presence of punicalagin ([9]; protein alone 53.9 °C): 51.6 °C
- Quenching constant Kq ([10]; PDIA1, KSV = Kqτ, τ in the order of 1.0 × 10^−8 s): greater than 1.0 × 10^10 M^1s^−1
- Stern–Volmer constant (bound stated in text) ([10]; PDIA1, both proteins always greater): greater than 1.0 × 10^4 M^−1
- Stern–Volmer constant KSV ([10]; PDIA1 not reduced form): 183.2 ± 2.7 M^−1 × 10^3
- Stern–Volmer constant KSV ([10]; PDIA1 reduced form): 97.9 ± 2.1 M^−1 × 10^3
- Kd ([10]; PDIA1 not reduced form): 4.9 µM
- Kd ([10]; PDIA1 reduced form): 11.9 µM
